According to article PMC4020173 (Bioorganic & medicinal chemistry, 2014):
Entries after “also recorded” stand apart in the source; their conditions may differ.

Experiments:
[1] = system: MDA-MB-436 human breast cancer xenograft tumors; experiment: MicroPET imaging with [^18F]12 in MDA-MB-436 tumor-bearing mice; format: in vivo; details: MDA-MB-436 tumors in mice; olaparib 50 mg/kg i.p. or 12 1 mg/kg i.p., 20 min prior to tracer injection
MDA-MB-231 tumors = experiment: MicroPET imaging with [^18F]12 in MDA-MB-231 tumor-bearing mice; format: in vivo; details: MDA-MB-231 tumor in mice; olaparib i.p. 50 mg/kg 20 min pretreatment; time-radioactivity curves

O=C1NCCn2c(-c3ccc(OCCF)cc3)nc3cccc1c32 [Compound 12, 5,6-Dihydro-2-(4-(2-fluoroethoxy)phenyl)-imidazo[4,5,1-jk][1,4]benzodiazepin-7(4H)-ones]
Effect of pretreatment on [^18F]12 uptake in tumor (blocking) [1]: decreased [^18F]12 uptake in the tumors to the background tissue activity levels; also recorded: blocked

O=C(c1cc(Cc2n[nH]c(=O)c3ccccc23)ccc1F)N1CCN(C(=O)C2CC2)CC1 [olaparib]
Effect of pretreatment on [^18F]12 uptake in tumor (blocking) [1]: blocked; also recorded: decreased [^18F]12 uptake in the tumors to the background tissue activity levels | Effect of pretreatment on [^18F]12 uptake in tumor (blocking) (MDA-MB-231 tumors): decreased [^18F]12 uptake
